Patent US20230089073A1 (Carmot Therapeutics, Inc., priority 2021, published 2023)

Target: T1, human GLP-1 receptor (Homo sapiens, UniProt P43220)
T1 construct: expressed in transfected cells
Assay: GLP-1R cAMP Assay
Assay type: cell-based
Conditions: cAMP accumulation in CHO cells stably overexpressing the human GLP-1 receptor; 30 min treatment; HitHunter cAMP kit; read-out: EC50
Method: cAMP accumulation was measured in Chinese hamster ovary (CHO) cells stably overexpressing the human GLP-1 receptor using the HitHunter cAMP Assay for Small Molecules Kit (Eurofins). Briefly, cells were grown in Ham's F12 Nutrient Mix with 10% FBS, and lifted with Cell Dissociation Buffer, Enzyme free, PBS based (ThermoFisher). […] The anti-cAMP antibody reagent was then added to cells at a 1:2 ratio and 5 μL of mixture was seeded in 384-well small volume white assay plates, at 10,000 cells/well. Cells were then treated with 50 nL compound using an ECHO 550 acoustic dispenser (Labcyte) in a 20-point dose response format in triplicate for 30 min. Cells were then lysed, and detection reagents added according to the manufacturer's protocol. After overnight incubation, luminescence was measured using a Perkin Elmer Envision plate reader. Dose response curves were analyzed using GraphPad Prism 9.0.

T1 sequence (P43220 24-463): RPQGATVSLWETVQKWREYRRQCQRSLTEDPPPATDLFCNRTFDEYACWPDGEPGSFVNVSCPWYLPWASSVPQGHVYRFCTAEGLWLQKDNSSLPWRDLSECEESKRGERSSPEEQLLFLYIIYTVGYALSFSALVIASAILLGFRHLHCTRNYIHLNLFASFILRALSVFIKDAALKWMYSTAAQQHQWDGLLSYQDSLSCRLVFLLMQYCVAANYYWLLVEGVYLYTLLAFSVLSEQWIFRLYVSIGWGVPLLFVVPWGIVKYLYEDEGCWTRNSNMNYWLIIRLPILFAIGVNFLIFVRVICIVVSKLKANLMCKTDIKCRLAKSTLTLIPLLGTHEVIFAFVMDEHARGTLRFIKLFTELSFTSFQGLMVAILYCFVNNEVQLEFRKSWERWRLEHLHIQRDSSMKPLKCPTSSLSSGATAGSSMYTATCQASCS

Structure (SMILES) | EC50
O=C(O)c1ccc2nc(CN3CCC(Cc4cccc(COc5ccc(Cl)cc5Cl)c4F)CC3)n(C[C@@H]3CCO3)c2c1 [Compound 135, 2-{[4-({3-[(2,4-dichlorophenoxy)methyl]-2-fluorophenyl}methyl)piperidin-1-yl]methyl}-1-{[(2S)-oxetan-2-yl]methyl}-1H-1,3-benzodiazole-6-carboxylic acid] | 50 to 500 nM
O=C(O)c1ccc2nc(CN3CCC(Cc4cccc(COc5ccc(Cl)cc5Cl)c4)CC3)n(Cc3ncco3)c2c1 [Compound 149, 2-{[4-({3-[(2,4-dichlorophenoxy)methyl]phenyl}methyl)piperidin-1-yl]methyl}-1-[(1,3-oxazol-2-yl)methyl]-1H-1,3-benzodiazole-6-carboxylic acid] | < 50 nM
O=C(O)c1ccc2nc(CN3CCN(C(=O)c4ccc(Cc5ccc(Cl)cc5Cl)o4)CC3)n(C[C@@H]3CCO3)c2c1 [Example 59, (S)-2-((4-(5-(2,4-Dichlorobenzyl)furan-2-carbonyl)piperazin-1-yl)methyl)-1-(oxetan-2-ylmethyl)-1H-benzo[d]imidazole-6-carboxylic acid] | 50 to 500 nM
Cn1cncc1Cn1c(CN2CCC(Oc3ccnc(COc4ccc(Cl)cc4C#N)c3)CC2)nc2ccc(C(=O)O)cc21 [Compound 259, 2-{[4-({2-[(4-chloro-2-cyanophenoxy)methyl]pyridin-4-yl}oxy)piperidin-1-yl]methyl}-1-[(1-methyl-1H-imidazol-5-yl)methyl]-1H-1,3-benzodiazole-6-carboxylic acid] | < 50 nM
CCn1cncc1Cn1c(CN2CCC(C#N)(Cc3ccnc(COc4ccc(Cl)cc4Cl)c3)CC2)nc2ccc(C(=O)O)cc21 [Example 189, 2-((4-Cyano-4-((2-((2,4-dichlorophenoxy)methyl)pyridin-4-yl)methyl)piperidin-1-yl)methyl)-1-((1-ethyl-1H-imidazol-5-yl)methyl)-1H-benzo[d]imidazole-6-carboxylic acid] | < 50 nM
CCn1cncc1Cn1c(CN2CCN(C(=O)c3cccc(CNc4ccc(C)cc4Cl)c3)CC2)nc2ccc(C(=O)O)cc21 [Compound 79, 2-{[4-(3-{[(2-chloro-4-methylphenyl)amino]methyl}benzoyl)piperazin-1-yl]methyl}-1-[(1-ethyl-1H-imidazol-5-yl)methyl]-1H-1,3-benzodiazole-6-carboxylic acid] | > 500 nM
O=C(O)c1ccc2nc(CN3CCN(C(=O)c4cccc(Oc5ccc(C(F)(F)F)cc5Cl)c4)CC3)n(C[C@@H]3CCO3)c2c1 [Example 2, (S)-2-((4-(3-(2-Chloro-4-(trifluoromethyl)phenoxy)benzoyl)piperazin-1-yl)methyl)-1-(oxetan-2-ylmethyl)-1H-benzo[d]imidazole-6-carboxylic acid] | > 500 nM
N#Cc1cc(F)c(OCc2nccc(OC3CCN(Cc4nc5ccc(C(=O)O)cc5n4C[C@@H]4CCO4)CC3)n2)cc1F [Example 498, (S)-2-((4-((2-((4-Cyano-2,5-difluorophenoxy)methyl)pyrimidin-4-yl)oxy)piperidin-1-yl)methyl)-1-(oxetan-2-ylmethyl)-1H-benzo[d]imidazole-6-carboxylic acid] | < 50 nM
O=C(O)c1ccc2nc(CN3CCN(C(=O)c4ccc(COc5ccccc5Cl)o4)CC3)n(C[C@@H]3CCO3)c2c1 [Compound 39, 2-[(4-{5-[(2-chlorophenoxy)methyl]furan-2-carbonyl}piperazin-1-yl)methyl]-1-{[(2S)-oxetan-2-yl]methyl}-1H-1,3-benzodiazole-6-carboxylic acid] | > 500 nM
Cc1ccc(N(C)c2cc(F)cc(C(=O)N3CCN(Cc4nc5ccc(C(=O)O)cc5n4C[C@@H]4CCO4)CC3)c2)c(Cl)c1 [Compound 100, 2-[(4-{3-[(2-chloro-4-methylphenyl)(methyl)amino]-5-fluorobenzoyl}piperazin-1-yl)methyl]-1-{[(2S)-oxetan-2-yl]methyl}-1H-1,3-benzodiazole-6-carboxylic acid] | < 50 nM
